Data: patent US20190062699A1, “HIGHLY FUNCTIONAL HEPATOCYTE AND USE THEREOF” (GAIA BioMedicine Inc., priority 2016, published 2019)
“Also recorded” adds a separate entry of the source.

Tested on: iPS-HEP cells
Assay: ammonia metabolism test (Ammonia Test Wako) on iPS-derived hepatocytes
Assay type: cell-based, human
Conditions: compounds in differentiation induction medium III (FH1 final 50 μM, FPH1 final 20 μM); compared with use of feeder cells (HUVECs, MSCs); 2 mM ammonia, 24 hours
Description: When HUVEC and MSC are used as feeder cells, perform co-culture as required as adhesion culture (refer to Non-patent document 1 cited below). • 2.11. Indicate the date, name of the cells, etc. on the culture plate, and carry out culture in an incubator at 37° C. and 5% CO2. • 2.12. Carry out an operation of removing the supernatant, and adding flesh medium III on every other day up to Day 17. • [Day 17: Completion of CiPS-Hep->ammonia metabolism test] • 1. Prepare HBM (cocktail)+aqueous ammonia (henceforth referred to as ammonia medium) in a volume of 1 ml/well×2.
• 2. Remove the culture supernatant, and wash the cell surfaces once with 1 ml of HBM, and once with ammonia HBM. • 3. […]
• 4. […] During the centrifugation, turn on the power sources of microplate reader and personal computer, and choose Tecan i-control. • 8. […] Remove a lid, set the plate on the microplate reader, and sway the plate (double click “Shaking”, choose “10 sec” and “Normal”, and click “Start”). • 11. […] Set the plate on the microplate reader, and sway the plate. • 13. […] Set the plate on the microplate reader, and sway the plate. • 15. […] Finely wipe the bottom of the plate, and set the plate on the microplate reader with adjusting the upper left corner. • 18. Measure absorbance (620 or 630 nm) (double click “Measure” of “Absorbance”, select the well for measurement at 620 nm in “Details”, and click “Start”).

Row | Compound | ammonia-metabolizing function-enhancing effect
1 | Cc1ccc(Cl)cc1N(CC(=O)Nc1c(F)cccc1F)S(C)(=O)=O [FPH1, 2-N-(5-chloro-2-methylphenyl)(methylsulfonamido)-N-(2,6-difluorophenyl)acetamide] | higher ammonia-metabolizing function-enhancing effect compared with use of feeder cells; also recorded: higher metabolism-enhancing effect compared with use of feeder cells
2 | CC(=O)Nc1ccc(Cc2ccc(NC(C)=O)cc2)cc1 [FH1, N,N′-(methylenebis)(4,1-phenylene)diacetamide] | higher ammonia-metabolizing function-enhancing effect compared with use of feeder cells; also recorded: higher metabolism-enhancing effect compared with use of feeder cells
